{"source": "patent US20110212455A1", "about": "“METHOD OF SCREENING MATERIAL FOR IMPROVING SKIN FUNCTIONS” (AMOREPACIFIC CORPORATION, priority 2008, published 2011)", "key": {"MAP17 gene": {"tested_on": "MAP17 gene", "assay": "MAP17 gene expression in human keratinocytes treated with ginsenoside-Re (Q-RT-PCR)", "assay_type": "cell-based", "settings": "ginsenoside-Re 10 uM, 24 hours, vs untreated control, FIG. 5 (A)", "procedure": "(§1) Various human keratinocytes were treated with a variety of materials, and change in expression of MAP17 and filaggrin genes were monitored. It was investigated whether ginsenoside-Re, a kind of ginsenoid derived from the fruit of ginseng, regulates the expression of MAP17 and filaggrin genes. Human keratinocytes were purchased from Lonza, Inc. and cultured in KBM-2 medium (Clonetics CC-3103) in a CO2 incubator under a condition of 37° C. and 5% CO2.\n(§2) The cultured human keratinocytes without any treatment were used as a control group. For a test group, the human keratinocytes were further cultured for 24 hours after adding ginsenoside-Re (10 uM). Ginsenoside-Re was purchased from Wako (Kanagawa, Japan) and prepared into a solution according to the manufacturer's instructions. […]\n(§3) The isolated RNA was purified once more using Qiagen RNeasy kit (Qiagen, Valencia, Calif.) and RNA quality and concentration were verified using Agilent 2100 BioAnalyzer (Agilent Technologies, Santa Clara, Calif., USA). cDNA was synthesized from the isolated RNA using Superscript RT II kit (Invitrogen, Carlsbad, Calif.), and change in gene expression was quantitatively analyzed by means of Q-RT-PCR. Change in the expression pattern of MAP17 (Hs00173779_m1) and filaggrin (Hs00856927_g1) was evaluated using TaqMan® gene expression assay kit (Applied Biosystems, Foster City, Calif.) and is shown in FIG. 5."}, "filaggrin gene": {"tested_on": "filaggrin gene", "assay": "filaggrin gene expression in human keratinocytes treated with ginsenoside-Re (Q-RT-PCR)", "assay_type": "cell-based", "settings": "ginsenoside-Re 10 uM, 24 hours, vs untreated control, FIG. 5 (B)", "procedure": "as §1, §2, §3"}}, "data": [{"smiles": "CC(C)=CCC[C@](C)(O[C@@H]1O[C@H](CO)[C@@H](O)[C@H](O)[C@H]1O)[C@H]1CC[C@]2(C)[C@@H]1[C@H](O)C[C@@H]1[C@@]3(C)CC[C@H](O)C(C)(C)[C@@H]3[C@@H](O[C@@H]3O[C@H](CO)[C@@H](O)[C@H](O)[C@H]3O[C@@H]3O[C@@H](C)[C@H](O)[C@@H](O)[C@H]3O)C[C@]12C", "note": "[ginsenoside-Re]", "values": [{"measurement": "expression of the MAP17 gene in human keratinocytes", "setting": "MAP17 gene", "value": "markedly decreases"}, {"measurement": "expression of the filaggrin gene in human keratinocytes", "setting": "filaggrin gene", "value": "increases"}]}]}
